Data reported in patent publication US11793983B2, “Sonodynamic therapy using microbubbles and pulsed wave ultrasound methods and systems” (University of Pittsburgh-Of the Commonwealth System of …, priority 2017, dated 2023).

System: Mouse squamous cell carcinoma cells SCC-VII
Assay: Cytotoxicity in vitro with ultrasound, alamarBlue cell viability assay
Type: cell-based
Settings: +US, ISAPA=1 W/cm^2, 10% duty cycle, 2 min, 24 hours after treatment
Procedure: Mouse squamous cell carcinoma cells SCC-VII were cultured in RPMI 1640 medium supplemented with 10% fetal bovine serum (FBS), […] and 200 IU/mL penicillin (Gibco, ThermoFisher Scientific, Waltham, Mass.). Cells were harvested and suspended in a concentration of 1×10^6 cells/mL using serum free RPMI-1640 medium. Every 2 mL of cell suspension was transferred to 14 mL Falcon round-bottom polystyrene tubes. Immediately before the US treatment, the suspension was supplemented together with various concentrations of MBPpIX. US (1 MHz, 10% duty cycle) exposure time for each acoustic condition is 2 min. During exposure, the sample tube was gently shaking occasionally (every 10 sec) to improve mixing and to provide uniform exposure. Free PpIX (first dissolved in DMSO; final concentration: 2.9 μM) or PpIX liposome (precursor of MBPpIX, with equivalent PpIX concentration of 2.9 μM) were used for comparison and cells not treated were used as controls (NT). After treatment procedure, 300 μL of the cell suspension was transferred to a 24 well plate prefilled with 2 mL cell culture medium, and the cells were incubated at 37° C. for 24 hours. Cell viability was then measured using alamarBlue cell viability assay. Cell morphology was examined with bright field microscopy (IX81, Olympus, Center Valley, Pa.). […]

`C=CC1=C(C)c2cc3[nH]c(cc4nc(cc5[nH]c(cc1n2)c(C)c5CCC(=O)O)C(CCC(=O)O)=C4C)c(C)c3C=C` [PpIX, protoporphyrin IX] was tested, and the cell viability was 4±3%.
